From PMC11585924, “Direct measurements of neurosteroid binding to specific sites on GABAA receptors” (British journal of pharmacology, 2024)
“And” between values parts separate entries of the source, which are not always exact repeats. Identical values can stand only once. “Also recorded” adds a separate entry of the source. Like-named read-outs stand apart in the source and are kept apart here.

What was measured:
ELIC-α1GABAAR [1] = target: T1, ELIC-α1GABAAR (Homo sapiens, UniProt P14867); type: binding
Method: One hundred microlitres of ELIC-α1GABAAR (0.3 μM) was transferred into a 50-μl window quartz cuvette maintained at 4°C, and NaI was added to the protein sample to a final concentration of 100 mM and incubated for 10 min. MQ290 was then added at a concentration of 3 μM for 3α-OH NS inhibition curves or 1 μM for 3β-OH NS inhibition curves and incubated for 30 min. One-microlitre aliquots of 3α-OH and 3β-OH NS from their corresponding stock solutions (prepared in Buffer A + 0.015% DDM) were added to achieve concentrations between 0.01 and 30 μM. The background emission spectra of ligands alone were obtained for each ligand concentration in the absence of protein and were subtracted from the protein-ligand emission spectra to yield background subtracted data. The MQ290 FRET spectra for different ligand concentrations were estimated using the method described above. The 370-nm intensities of the FRET spectra were plotted against ligand concentration and fitted to a four-parameter logistic curve to obtain IC50 data (GraphPad Software version 9.4.0, San Diego, CA). Ki values were calculated using the relationship: Ki=IC50/1+LT/Kd
where LT is the concentration of MQ290 and Kd was determined from the MQ290 binding curve.

α1β3 GABAA receptors = target: T2, α1β3 GABAA receptors (Homo sapiens, UniProt P14867+P28472); assay: Two-electrode voltage clamp of GABA-elicited currents in Xenopus oocytes; type: cell-based; conditions: for potentiation of GABA-elicited currents: low GABA, wild-type α1β3
T2 construct: expressed in transfected cells; host or cells: Xenopus laevis oocytes, cRNA injected 5:1 (α1:β3)
T2 sequence (P14867 28-456): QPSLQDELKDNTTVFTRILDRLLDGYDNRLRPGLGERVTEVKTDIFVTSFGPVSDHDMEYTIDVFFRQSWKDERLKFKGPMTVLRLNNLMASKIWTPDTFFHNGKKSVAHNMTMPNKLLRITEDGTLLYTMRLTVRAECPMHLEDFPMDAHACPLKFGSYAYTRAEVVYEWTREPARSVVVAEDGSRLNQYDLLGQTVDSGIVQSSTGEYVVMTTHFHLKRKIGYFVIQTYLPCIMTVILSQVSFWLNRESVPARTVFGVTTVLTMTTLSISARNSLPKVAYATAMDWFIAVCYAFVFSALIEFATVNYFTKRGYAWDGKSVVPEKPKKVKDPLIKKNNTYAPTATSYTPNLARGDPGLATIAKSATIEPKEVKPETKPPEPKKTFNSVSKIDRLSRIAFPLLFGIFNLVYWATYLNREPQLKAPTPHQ
T2 sequence (P28472 26-473): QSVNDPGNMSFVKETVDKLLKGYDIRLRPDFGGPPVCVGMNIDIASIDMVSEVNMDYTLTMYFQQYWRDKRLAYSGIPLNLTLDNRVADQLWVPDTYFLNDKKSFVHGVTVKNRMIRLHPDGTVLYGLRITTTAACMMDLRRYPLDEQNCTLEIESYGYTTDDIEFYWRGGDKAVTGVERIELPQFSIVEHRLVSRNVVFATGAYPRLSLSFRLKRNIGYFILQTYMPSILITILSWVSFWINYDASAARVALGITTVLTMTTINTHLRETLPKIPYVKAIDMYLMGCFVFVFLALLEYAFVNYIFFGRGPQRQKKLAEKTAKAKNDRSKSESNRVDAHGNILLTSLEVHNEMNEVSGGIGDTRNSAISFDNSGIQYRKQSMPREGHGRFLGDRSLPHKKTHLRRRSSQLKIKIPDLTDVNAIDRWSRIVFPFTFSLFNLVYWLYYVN
Method: (§1) Receptor expression and electrophysiological recordings were conducted as described in detail previously ([Sugasawa et al., 2020]). In brief, α1β3 GABAA receptors were expressed in oocytes from the African clawed frog (X. laevis). The wild-type α1 and β3 subunits were of human origin (Genbank accession numbers NM_000806.5 and NM_000814.5, respectively). The α1 clone containing the Q-to-L mutation to the classic neurosteroid binding site ([Hosie et al., 2006]) was of rat origin. (The glutamine residue in ELIC-α1GABAAR is Q242, whereas the corresponding residue in rat α1 is Q241. For simplicity, the residue is referred to as Q242 for both rat and ELIC-α1GABAAR.) The oocytes were purchased as quarter ovaries from Xenopus1 (Dexter, MI, USA). Following digestion in 2% w/v (mg·ml^−1) collagenase A, the oocytes were injected with a total of 12 ng cRNA per oocyte in a 5:1 ratio (α1:β3) and incubated at 15°C for 2–3 days prior to electrophysiological recordings in ND96 (96-mM NaCl, 2-mM KCl, 1.8-mM CaCl2, 1-mM MgCl2, 5-mM HEPES; pH 7.4) supplemented with 100 U·ml^−1 penicillin and 100 μg·ml^−1 streptomycin.
(§2) Electrophysiological recordings were conducted at ≈22°C using standard two-electrode voltage clamp. The voltage and current electrodes (G120F-4, OD = 1.20 mm, ID = 0.69 mm; Warner Instruments, Hamden, CT, USA) were filled with 3-M KCl and had resistances of 0.3–1 MΩ. The oocytes were clamped at −60 mV. The chamber (RC-1Z; Warner Instruments) was perfused with ND96 at 5–8 ml·min^−1. Solutions were gravity-applied. The current responses were amplified with an Axoclamp 900A (Molecular Devices, San Jose, CA, USA) or OC-725C amplifier (Warner Instruments), digitized with a Digidata 1200 series digitizer (Molecular Devices) and stored on PC hard drive using pClamp (Molecular Devices; RRID:SCR_011323). Current amplitudes were determined using Clampfit (Molecular Devices).
A standard experiment consisted of a several-minute long applications of GABA followed immediately by a co-application of GABA + modulator and a wash in GABA. For normalization purposes, each cell was exposed to the combination of saturating (1-mM) GABA + 50-μM propofol, assumed to fully activate all receptors in the cell ([Eaton et al., 2016]).

[2] = test system: T3, α1^Q242Lβ3 GABAA receptors; assay: Two-electrode voltage clamp, α1(Q242L) mutant receptors in Xenopus oocytes; type: cell-based, rat α1, human β3; conditions: low GABA; α1(Q242L)β3
T3 construct: expressed in transfected cells; host or cells: Xenopus laevis oocytes, cRNA injected 5:1 (α1:β3)
Method: as §1, §2
A standard experiment consisted of a several-minute long applications of GABA followed immediately by a co-application of GABA + modulator and a wash in GABA. […]

ELIC-α1^W246LGABAAR = ELIC-α1^W246LGABAAR (Homo sapiens, UniProt P14867, W273L); assay: MQ290 FRET in W246L receptors; type: binding; conditions: W246L vs WT
Method: (§3) To monitor binding of MQ290 to ELIC-α1GABAAR, 100 μl of ELIC-α1GABAAR (0.3 μM) was transferred into a 50-μl window quartz cuvette that was placed in a cuvette holder. The temperature of the cuvette was maintained at 4°C. NaI (final concentration = 100 mM) was added to the protein sample and incubated for 10 min to reduce the emission of hydrophilic tryptophan residues. One-microlitre aliquots of 100× stock solutions of MQ290 (prepared in Buffer A + 0.015% DDM) were sequentially added to the protein sample and incubated for 30 min after each addition. Because MQ290 alone absorbs at 280 nm, emission spectrum (background spectrum) of MQ290 in the absence of protein was also obtained. The MQ290 background spectra were subtracted from the protein-MQ290 emission spectra to obtain the background-corrected spectra and were smoothened using the Savitzky–Golay method before analysis.
(§4) The ELIC-α1GABAAR emission spectrum obtained before the addition of MQ290 was used as the reference to estimate the contribution of ELIC-α1GABAAR tryptophan emission in the presence of MQ290. […] The calculated ELIC-α1GABAAR tryptophan emission spectrum was then subtracted from the background-corrected spectrum to obtain the emission spectrum of the signal resulting from energy transfer (FRET spectrum) from tryptophan to MQ290 (Figure S6). […]

ELIC-α1^Q242LGABAAR = assay: MQ290 FRET in Q242L receptors; type: binding, human; conditions: Q242L vs WT
Method: as §3, §4

ELIC-α1GABAAR [3] = target: T1, ELIC-α1GABAAR; assay: KK200 photolabelling competition, middle-down MS; type: binding; conditions: 3 μM KK200, 30 μM competitor
Method: The synthesis of the NS photolabelling reagent KK200 is detailed in previous reports ([W. W. L. Cheng et al., 2018]; [Jiang et al., 2016]). […] The samples were then irradiated in a quartz cuvette for 5 min, using a photoreactor emitting light at >320 nm ([Germann et al., 2021]). Sample preparation for tryptic digestion and analysis by LC–MS was performed as previously described ([Sugasawa et al., 2019]). Peptides were separated on a home-packed PLRP-S (Agilent, Santa Clara, CA, USA) column (10 cm × 75 μm, 300 Å) using a 135-min gradient from 10% to 90% acetonitrile and introduced to an Orbitrap-Elite mass spectrometer (Thermo Fisher Scientific, Waltham, MA, USA; RRID:SCR_020548) at 800 nl·min^−1 with a nanospray source. MS acquisition was set as an MS1 Orbitrap scan (resolution of 60,000) followed by top 20 MS2 Orbitrap scans (resolution of 15,000) using data-dependent acquisition and exclusion of singly charged precursors. Fragmentation was performed using high-energy dissociation with normalized energy of 35%. Analysis of data sets was performed using Xcalibur (Thermo Fisher Scientific, Waltham, MA, USA; RRID: SCR_014593) to manually search for TM1, TM2, TM3 or TM4 tryptic peptides with or without NS photolabelling modifications. Photolabelling efficiency was estimated by generating extracted chromatograms of unlabelled and labelled peptides, determining the area under the curve, and calculating the (area of labelled peptide/(area of unlabelled + area of labelled peptide). MS2 spectra of photolabelled TMD peptides were analysed by manual assignment of fragment ions with and without photolabelling modification.

ELIC-α1GABAAR [4] = target: T1, ELIC-α1GABAAR; type: binding; remark: listed apart in the source
Method: Excitation and emission spectra were obtained using a FluoroMax Plus-C fluorometer (Horiba Instruments, Tokyo, Japan). For obtaining emission spectra, 280 nm was used as the excitation wavelength and emission was recorded from 300 to 450 nm. The excitation and emission slit widths used for obtaining emission spectra were 1 and 5 nm. For protein-ligand binding experiments, three emission spectra were obtained and averaged after each addition of a ligand or sodium iodide (NaI). The averaged spectra were smoothed using the Savitzky–Golay method before analysis.
One hundred microlitres of purified ELIC-α1GABAAR (0.3 μM in Buffer A + 0.015% DDM) was transferred into a 50-μl window quartz cuvette (Starna Cells, Atascadero, CA, USA), which was placed in a cuvette holder maintained at 4°C. […] Two microlitres of NaI (AK Scientific, Union City, CA, USA; 5-M stock prepared in 0.1-Mm sodium hydrosulfite [Sigma-Aldrich, St. Louis, MO, USA]) was added to the protein (final concentration = 100 mM) and incubated for 10 min to reduce the fluorescence emission from hydrophilic tryptophans. To measure the concentration–dependent effects of NS on tryptophan fluorescence, 1 μl of NS from each 100× stock solution was sequentially added to the NaI-equilibrated protein and thoroughly mixed to achieve concentrations from 0.01 to 50 μM. […]

T1 sequence (P14867 other isoform, or with tags, fused parts or gaps): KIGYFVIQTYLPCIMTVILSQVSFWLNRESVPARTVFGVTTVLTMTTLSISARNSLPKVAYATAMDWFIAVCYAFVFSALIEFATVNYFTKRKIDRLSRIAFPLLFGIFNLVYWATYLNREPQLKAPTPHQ
T1 sequence (P0C7B7 1-198, further chain): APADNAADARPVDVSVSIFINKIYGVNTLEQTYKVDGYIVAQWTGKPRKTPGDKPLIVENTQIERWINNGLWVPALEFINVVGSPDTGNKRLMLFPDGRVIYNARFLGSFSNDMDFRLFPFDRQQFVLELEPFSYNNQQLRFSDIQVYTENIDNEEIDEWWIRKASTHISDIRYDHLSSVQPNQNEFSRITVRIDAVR
ELIC-α1^W246LGABAAR, sequence (P14867 other isoform, or with tags, fused parts or gaps W273L): as the sequence (P14867 other isoform, or with tags, fused parts or gaps) above, with W25L counted along it
ELIC-α1^W246LGABAAR, sequence (P0C7B7 1-198, further chain): as the sequence (P0C7B7 1-198, further chain) above

SMILES | Hill slope (ELIC-α1GABAAR [1]; 3β-OH NS, MQ290 1 μM) | potentiation of GABA-elicited currents (α1β3 GABAA receptors) | potentiating effect with α1(Q242L) mutation [2] | Hill slope (ELIC-α1GABAAR [1]; 3α-OH NS, MQ290 3 μM) | also measured
CC(=O)[C@H]1CCC2C3CC[C@H]4C[C@@](C)(O)CC[C@]4(C)C3CC[C@@]21C (stereo partly drawn) [Epi-GX, epi-ganaxolone] | −0.67 ± 0.30 | do not |  |  | 
CC(=O)[C@H]1CCC2C3CC[C@@H]4C[C@@H](O)CC[C@]4(C)C3CC[C@@]21C (stereo partly drawn) [Epi-PREG, Epi-pregnanolone] | −0.77 ± 0.42 | potentiates | prevented |  | 
CC(=O)[C@H]1CC[C@H]2[C@@H]3CC[C@H]4C[C@](C)(O)CC[C@]4(C)[C@H]3CC[C@]12C [GX, ganaxolone] |  |  |  | −1.57 ± 0.26 | 
CO[C@H]1CCC2C3=CC=C4C[C@H](O)CC[C@]4(C)C3=CC[C@@]21C (stereo partly drawn) [MQ290] |  | potentiates | eliminated |  | reduction of maximal MQ290 FRET signal in W246L receptors (ELIC-α1^W246LGABAAR): ~ 90% and 90%; MQ290 FRET signal in Q242L mutants (ELIC-α1^Q242LGABAAR): significantly reduced; prevention of KK200 photolabelling of TM3 (Y309) (ELIC-α1GABAAR [3]): significantly different than control; also recorded: prevented; EC50 (α1β3 GABAA receptors): 1 to 10 µM
CC(=O)[C@H]1CC[C@H]2[C@@H]3CC[C@@H]4C[C@H](O)CC[C@]4(C)[C@H]3CC[C@]12C [PREG, pregnanolone] |  |  |  | −1.02 ± 0.35 | 
CO[C@H]1CCC2C3CC[C@H]4C[C@H](O)CC[C@]4(C)C3CC[C@@]21C (stereo partly drawn) [YX03] |  | enhances; also recorded: potentiates | blocked | −0.98 ± 0.37 | prevention of AlloP induced quenching (ELIC-α1GABAAR [4]): partially prevents; quenching of ELIC-α1GABAAR tryptophan fluorescence (ELIC-α1GABAAR [4]; YX03 10 and 30 µM): absent; also recorded: does not quench
